# Measurements reported in PubChem BioAssay (NCI).
#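 The concentration for 50% growth inhibition is given as GI50. TGI marks complete inhibition of growth.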
# Legend:
# Experiment in all cases: inhibition of tumour cell growth, NCI panel, 384-well format
# NCI/ADR-RES ovarian = tested on: NCI/ADR-RES ovarian
# HS 578T breast = tested on: HS 578T breast
# DU-145 prostate = tested on: DU-145 prostate
# NCI-H23 lung = tested on: NCI-H23 lung
# SK-OV-3 ovarian = tested on: SK-OV-3 ovarian
# 786-0 renal = tested on: 786-0 renal
# HCC-2998 colon = tested on: HCC-2998 colon
# U251 glioblastoma = tested on: U251 glioblastoma
# RPMI-8226 leukemia = tested on: RPMI-8226 leukemia
# SF-539 CNS = tested on: SF-539 CNS
# SK-MEL-5 melanoma = tested on: SK-MEL-5 melanoma
# SNB-19 CNS = tested on: SNB-19 CNS
# EKVX NSCLC = tested on: EKVX NSCLC
# CAKI-1 renal = tested on: CAKI-1 renal
# M14 melanoma = tested on: M14 melanoma
# MCF7 breast = tested on: MCF7 breast
# KM12 colon = tested on: KM12 colon
# T-47D breast = tested on: T-47D breast
# SNB-75 CNS = tested on: SNB-75 CNS
# UACC-257 melanoma = tested on: UACC-257 melanoma
# COLO 205 colon = tested on: COLO 205 colon
# IGROV1 ovarian = tested on: IGROV1 ovarian
# UO-31 renal = tested on: UO-31 renal
# NCI-H226 lung = tested on: NCI-H226 lung
# LOX IMVI melanoma = tested on: LOX IMVI melanoma
# SR leukemia = tested on: SR leukemia
# HCT-116 colon = tested on: HCT-116 colon
# MDA-MB-231 breast = tested on: MDA-MB-231 breast
# SF-268 CNS = tested on: SF-268 CNS
# HOP-62 NSCLC = tested on: HOP-62 NSCLC
# HL-60(TB) leukemia = tested on: HL-60(TB) leukemia
# MOLT-4 leukemia = tested on: MOLT-4 leukemia
# OVCAR-4 ovarian = tested on: OVCAR-4 ovarian
# CCRF-CEM leukemia = tested on: CCRF-CEM leukemia
# SN12C renal = tested on: SN12C renal
# HT29 colon = tested on: HT29 colon
# MDA-MB-435 melanoma = tested on: MDA-MB-435 melanoma
# A549 NSCLC = tested on: A549 NSCLC
# SW-620 colon = tested on: SW-620 colon
# PC-3 prostate = tested on: PC-3 prostate
# UACC-62 melanoma = tested on: UACC-62 melanoma
# NCI-H460 NSCLC = tested on: NCI-H460 NSCLC
# TK-10 renal = tested on: TK-10 renal
# OVCAR-3 ovarian = tested on: OVCAR-3 ovarian
# MDA-MB-468 breast = tested on: MDA-MB-468 breast
# RXF 393 renal = tested on: RXF 393 renal
# SF-295 CNS = tested on: SF-295 CNS
# NCI-H522 lung = tested on: NCI-H522 lung
# K-562 leukemia = tested on: K-562 leukemia
# HCT-15 colon = tested on: HCT-15 colon
# SK-MEL-28 melanoma = tested on: SK-MEL-28 melanoma
# OVCAR-8 ovarian = tested on: OVCAR-8 ovarian
# NCI-H322M lung = tested on: NCI-H322M lung
# BT-549 breast = tested on: BT-549 breast
# SK-MEL-2 melanoma = tested on: SK-MEL-2 melanoma
# OVCAR-5 ovarian = tested on: OVCAR-5 ovarian
# MALME-3M melanoma = tested on: MALME-3M melanoma
compound,measurement,setting,value
C=CCn1c(=O)c2cnc(Nc3ccc(N4CCN(C)CC4)cc3)nc2n1-c1cccc(C(C)(C)O)n1,GI50,NCI/ADR-RES ovarian,1.81 µM
same,TGI,NCI/ADR-RES ovarian,4.95 µM
same,GI50,HS 578T breast,0.154 µM
same,TGI,HS 578T breast,0.529 µM
same,GI50,DU-145 prostate,0.262 µM
same,TGI,DU-145 prostate,1.81 µM
same,GI50,NCI-H23 lung,0.0945 µM
same,TGI,NCI-H23 lung,0.254 µM
same,GI50,SK-OV-3 ovarian,0.0766 µM
same,TGI,SK-OV-3 ovarian,1.46 µM
same,GI50,786-0 renal,0.183 µM
same,TGI,786-0 renal,0.414 µM
same,GI50,HCC-2998 colon,0.203 µM
same,TGI,HCC-2998 colon,0.555 µM
same,GI50,U251 glioblastoma,0.419 µM
same,TGI,U251 glioblastoma,6.77 µM
same,GI50,RPMI-8226 leukemia,0.26 µM
same,TGI,RPMI-8226 leukemia,1.12 µM
same,GI50,SF-539 CNS,0.051 µM
same,TGI,SF-539 CNS,0.178 µM
same,GI50,SK-MEL-5 melanoma,0.187 µM
same,TGI,SK-MEL-5 melanoma,0.46 µM
same,GI50,SNB-19 CNS,0.502 µM
same,TGI,SNB-19 CNS,15.4 µM
same,GI50,EKVX NSCLC,0.56 µM
same,TGI,EKVX NSCLC,4.8 µM
same,GI50,CAKI-1 renal,0.0723 µM
same,TGI,CAKI-1 renal,11.2 µM
same,GI50,M14 melanoma,0.0514 µM
same,TGI,M14 melanoma,0.246 µM
same,GI50,MCF7 breast,0.216 µM
same,TGI,MCF7 breast,11.5 µM
same,GI50,KM12 colon,0.218 µM
same,TGI,KM12 colon,0.649 µM
same,GI50,T-47D breast,5.88 µM
same,TGI,T-47D breast,28.9 µM
same,GI50,SNB-75 CNS,1.21 µM
same,TGI,SNB-75 CNS,4.35 µM
same,GI50,UACC-257 melanoma,10 µM
same,TGI,UACC-257 melanoma,21.9 µM
same,GI50,COLO 205 colon,0.294 µM
same,TGI,COLO 205 colon,0.829 µM
same,GI50,IGROV1 ovarian,0.173 µM
same,TGI,IGROV1 ovarian,1.09 µM
same,GI50,UO-31 renal,0.274 µM
same,TGI,UO-31 renal,1.25 µM
same,GI50,NCI-H226 lung,1.41 µM
same,TGI,NCI-H226 lung,9.22 µM
same,GI50,LOX IMVI melanoma,0.626 µM
same,TGI,LOX IMVI melanoma,2.71 µM
same,GI50,SR leukemia,0.0584 µM
same,TGI,SR leukemia,0.184 µM
same,GI50,HCT-116 colon,0.308 µM
same,TGI,HCT-116 colon,2.24 µM
same,GI50,MDA-MB-231 breast,0.372 µM
same,TGI,MDA-MB-231 breast,7.33 µM
same,GI50,SF-268 CNS,0.559 µM
same,TGI,SF-268 CNS,10.7 µM
same,GI50,HOP-62 NSCLC,0.406 µM
same,TGI,HOP-62 NSCLC,2.13 µM
same,GI50,HL-60(TB) leukemia,0.148 µM
same,TGI,HL-60(TB) leukemia,0.284 µM
same,GI50,MOLT-4 leukemia,0.0299 µM
same,TGI,MOLT-4 leukemia,0.103 µM
same,GI50,OVCAR-4 ovarian,0.157 µM
same,TGI,OVCAR-4 ovarian,0.407 µM
same,GI50,CCRF-CEM leukemia,0.0699 µM
same,TGI,CCRF-CEM leukemia,0.197 µM
same,GI50,SN12C renal,0.311 µM
same,TGI,SN12C renal,2.27 µM
same,GI50,HT29 colon,0.319 µM
same,TGI,HT29 colon,15.2 µM
same,GI50,MDA-MB-435 melanoma,0.201 µM
same,TGI,MDA-MB-435 melanoma,0.413 µM
same,GI50,A549 NSCLC,1.02 µM
same,TGI,A549 NSCLC,12.8 µM
same,GI50,SW-620 colon,0.352 µM
same,TGI,SW-620 colon,1.93 µM
same,GI50,PC-3 prostate,0.724 µM
same,TGI,PC-3 prostate,21 µM
same,GI50,UACC-62 melanoma,0.354 µM
same,TGI,UACC-62 melanoma,12.8 µM
same,GI50,NCI-H460 NSCLC,0.574 µM
same,TGI,NCI-H460 NSCLC,3.42 µM
same,GI50,TK-10 renal,0.171 µM
same,TGI,TK-10 renal,0.7 µM
same,GI50,OVCAR-3 ovarian,0.13 µM
same,TGI,OVCAR-3 ovarian,0.328 µM
same,GI50,MDA-MB-468 breast,0.22 µM
same,TGI,MDA-MB-468 breast,0.492 µM
same,GI50,RXF 393 renal,0.0487 µM
same,TGI,RXF 393 renal,0.196 µM
same,GI50,SF-295 CNS,0.357 µM
same,TGI,SF-295 CNS,2.26 µM
same,GI50,NCI-H522 lung,0.135 µM
same,TGI,NCI-H522 lung,0.286 µM
same,GI50,K-562 leukemia,0.175 µM
same,TGI,K-562 leukemia,0.347 µM
same,GI50,HCT-15 colon,0.326 µM
same,TGI,HCT-15 colon,1.21 µM
same,GI50,SK-MEL-28 melanoma,3.44 µM
same,TGI,SK-MEL-28 melanoma,17.1 µM
same,GI50,OVCAR-8 ovarian,0.219 µM
same,TGI,OVCAR-8 ovarian,0.566 µM
same,GI50,NCI-H322M lung,0.233 µM
same,TGI,NCI-H322M lung,0.935 µM
same,GI50,BT-549 breast,0.115 µM
same,TGI,BT-549 breast,0.299 µM
same,GI50,SK-MEL-2 melanoma,0.16 µM
same,TGI,SK-MEL-2 melanoma,0.393 µM
same,GI50,OVCAR-5 ovarian,0.596 µM
same,TGI,OVCAR-5 ovarian,6.1 µM
same,GI50,MALME-3M melanoma,0.0529 µM
same,TGI,MALME-3M melanoma,0.342 µM
